# Laboratory results: the NIST ThermoML archive (doi:10.1016/j.jct.2013.09.042)
# Numbers after ± are expanded uncertainties.
# Key:
# [1] = Crystal; for vapor or sublimation pressure: Transpiration method; for Normal melting temperature: DTA
# [2] = Molar enthalpy of transition or fusion; conditions: Crystal; DSC
SMILES,vapor or sublimation pressure ([1]; 368.15 K) [kPa],vapor or sublimation pressure ([1]; 371.15 K) [kPa],vapor or sublimation pressure ([1]; 374.15 K) [kPa],vapor or sublimation pressure ([1]; 376.15 K) [kPa],vapor or sublimation pressure ([1]; 378.15 K) [kPa],vapor or sublimation pressure ([1]; 380.15 K) [kPa],vapor or sublimation pressure ([1]; 382.15 K) [kPa],vapor or sublimation pressure ([1]; 384.15 K) [kPa],vapor or sublimation pressure ([1]; 386.15 K) [kPa],vapor or sublimation pressure ([1]; 388.15 K) [kPa],vapor or sublimation pressure ([1]; 390.15 K) [kPa],Normal melting temperature [1] [°C],Molar enthalpy of transition or fusion [2] [kcal/mol],vapor or sublimation pressure ([1]; 359.15 K) [kPa],vapor or sublimation pressure ([1]; 362.15 K) [kPa],vapor or sublimation pressure ([1]; 364.15 K) [kPa],vapor or sublimation pressure ([1]; 366.15 K) [kPa],vapor or sublimation pressure ([1]; 377.15 K) [kPa],vapor or sublimation pressure ([1]; 381.15 K) [kPa],vapor or sublimation pressure ([1]; 353.15 K) [kPa],other results
Clc1ccc(N=C2SCC3CCCN2C3)cc1 (centres undefined) [N-(4-chlorophenyl)-3-thia-1-azabicyclo[3.3.1]nonan-2-imine],6.26e-05 ± 6.7e-06,8.91e-05 ± 9.5e-06,0.0001327 ± 1.4e-05,0.0001659 ± 1.8e-05,0.0002065 ± 2.2e-05,0.0002459 ± 2.6e-05,0.0003128 ± 3.3e-05,0.0003887 ± 4.1e-05,0.0004737 ± 5e-05,0.0005748 ± 6.1e-05,0.0007333 ± 7.8e-05,138.7 ± 0.5,2.82 ± 0.239,,,,,,,,vapor or sublimation pressure ([1]; 369.15 K): 7.04e-05 ± 7.5e-06 kPa; vapor or sublimation pressure ([1]; 373.15 K): 0.0001094 ± 1.2e-05 kPa; vapor or sublimation pressure ([1]; 375.15 K): 0.000149 ± 1.6e-05 kPa; vapor or sublimation pressure ([1]; 391.15 K): 0.0008441 ± 9e-05 kPa
CCc1ccc(N=C2SCC3CCCN2C3)cc1 (centres undefined) [N-(4-ethylphenyl)-3-thia-1-azabicyclo[3.3.1]nonan-2-imine],2.54e-05 ± 2.7e-06,2.86e-05 ± 3.1e-06,3.88e-05 ± 4.1e-06,3.03e-05 ± 1.5e-05,,6.76e-05 ± 7.2e-06,8.41e-05 ± 9e-06,8.43e-05 ± 9e-06,0.0001059 ± 1.1e-05,,,121.5 ± 0.5,3.92 ± 0.263,1.09e-05 ± 1.2e-06,1.35e-05 ± 1.5e-06,1.75e-05 ± 1.9e-06,1.98e-05 ± 2.1e-06,5.41e-05 ± 5.8e-06,7.59e-05 ± 8.1e-06,,vapor or sublimation pressure ([1]; 389.15 K): 0.0001278 ± 1.4e-05 kPa
Cc1cccc(N=C2SCC3CCCN2C3)c1 (centres undefined) [N-(m-tolyl)-3-thia-1-azabicyclo[3.3.1]nonan-2-imine],0.0003248 ± 3.4e-05,,0.0006715 ± 7.1e-05,0.0008044 ± 8.5e-05,,,,,,,,125.4 ± 0.5,6.33 ± 0.263,0.0001112 ± 1.2e-05,0.0001678 ± 1.8e-05,0.0002107 ± 2.2e-05,0.0002637 ± 2.8e-05,,,5.65e-05 ± 6e-06,vapor or sublimation pressure ([1]; 355.15 K): 7.21e-05 ± 7.7e-06 kPa; vapor or sublimation pressure ([1]; 357.15 K): 9.52e-05 ± 1e-05 kPa; vapor or sublimation pressure ([1]; 361.15 K): 0.0001522 ± 1.6e-05 kPa; vapor or sublimation pressure ([1]; 370.15 K): 0.0004227 ± 4.5e-05 kPa; vapor or sublimation pressure ([1]; 372.15 K): 0.0005258 ± 5.6e-05 kPa
Clc1ccc(N=C2SCC3CCCN2C3)cc1Cl (centres undefined),,,,,,,,,,,,97.8 ± 0.5,5.62 ± 0.263,2.58e-05 ± 2.8e-06,4e-05 ± 4.3e-06,,,,,1.25e-05 ± 1.4e-06,vapor or sublimation pressure ([1]; 352.15 K): 1.15e-05 ± 1.2e-06 kPa; vapor or sublimation pressure ([1]; 354.15 K): 1.59e-05 ± 1.7e-06 kPa; vapor or sublimation pressure ([1]; 355.15 K): 1.82e-05 ± 2e-06 kPa; vapor or sublimation pressure ([1]; 356.15 K): 2.26e-05 ± 2.4e-06 kPa; vapor or sublimation pressure ([1]; 357.15 K): 2.27e-05 ± 2.4e-06 kPa; vapor or sublimation pressure ([1]; 358.15 K): 2.56e-05 ± 2.7e-06 kPa; vapor or sublimation pressure ([1]; 360.15 K): 2.91e-05 ± 3.1e-06 kPa; vapor or sublimation pressure ([1]; 361.15 K): 3.49e-05 ± 3.7e-06 kPa; vapor or sublimation pressure ([1]; 363.15 K): 4.4e-05 ± 4.7e-06 kPa
Cc1ccc(N=C2SCC3CCCN2C3)cc1Cl (centres undefined),,,,3.1e-05 ± 3.3e-06,3.79e-05 ± 4e-06,,5.74e-05 ± 6.1e-06,7.6e-05 ± 8.1e-06,9.31e-05 ± 9.9e-06,0.0001239 ± 1.3e-05,0.0001553 ± 1.7e-05,133.5 ± 0.5,5.43 ± 0.263,,,,,3.39e-05 ± 3.6e-06,5.21e-05 ± 5.6e-06,,vapor or sublimation pressure ([1]; 379.15 K): 4.05e-05 ± 4.3e-06 kPa; vapor or sublimation pressure ([1]; 383.15 K): 6.78e-05 ± 7.2e-06 kPa; vapor or sublimation pressure ([1]; 392.15 K): 0.0002006 ± 2.1e-05 kPa; vapor or sublimation pressure ([1]; 394.15 K): 0.0002521 ± 2.7e-05 kPa; vapor or sublimation pressure ([1]; 396.15 K): 0.0003109 ± 3.3e-05 kPa
